Results on one substance are retold here after patent publication US4288341A, “Detergent product containing deodorant compositions” (priority 1978, dated 1981).

The assay deals with T1, lipoxidase (EC1.13.1.13) (Glycine max, UniProt P08170).
T1 sequence (P08170 1-839): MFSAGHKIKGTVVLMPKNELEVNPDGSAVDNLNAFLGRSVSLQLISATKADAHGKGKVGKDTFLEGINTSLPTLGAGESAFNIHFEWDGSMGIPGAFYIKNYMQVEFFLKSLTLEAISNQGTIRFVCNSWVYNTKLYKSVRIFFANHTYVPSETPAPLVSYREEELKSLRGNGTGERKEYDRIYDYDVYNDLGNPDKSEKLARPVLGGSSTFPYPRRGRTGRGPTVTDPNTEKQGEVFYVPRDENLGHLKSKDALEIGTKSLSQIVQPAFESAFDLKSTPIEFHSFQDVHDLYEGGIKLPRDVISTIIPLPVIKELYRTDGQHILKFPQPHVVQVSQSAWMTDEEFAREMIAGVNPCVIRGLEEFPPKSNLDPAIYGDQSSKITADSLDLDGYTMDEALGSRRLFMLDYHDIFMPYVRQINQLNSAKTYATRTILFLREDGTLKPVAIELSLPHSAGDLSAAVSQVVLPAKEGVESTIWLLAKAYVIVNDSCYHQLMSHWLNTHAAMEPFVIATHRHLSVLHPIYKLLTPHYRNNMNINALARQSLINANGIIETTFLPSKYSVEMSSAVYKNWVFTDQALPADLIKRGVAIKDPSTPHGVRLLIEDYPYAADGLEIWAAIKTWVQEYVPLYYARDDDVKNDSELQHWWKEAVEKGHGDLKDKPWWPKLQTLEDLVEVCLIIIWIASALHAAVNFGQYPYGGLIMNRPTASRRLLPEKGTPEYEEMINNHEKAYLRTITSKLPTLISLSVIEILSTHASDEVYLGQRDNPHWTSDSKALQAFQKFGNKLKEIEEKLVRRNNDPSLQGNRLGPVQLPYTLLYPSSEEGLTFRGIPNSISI
As to the kind of experiment: Lipoxidase test: inhibition of the oxidation of linoleic acid by lipoxidase. It counts as biochemical. The conditions noted are these: test substrate made with 0.5% by weight solution of material in ethanol; borate buffer pH 9.0; OD 234 nm.

With Dimyrcetol, the “LIC (lipoxidase-inhibiting capacity, % inhibition)” value was 16%.
